Results taken from PMC8836561, “Poly-Lysine Dendritic Nanocarrier to Target Epidermal Growth Factor Receptor Overexpressed Breast Cancer for Methotrexate Delivery” (Materials, 2022).
“And” between values parts separate entries of the source, which are not always exact repeats. Equal values may be shown once.

What was measured:
[1] = test system: MDA-MB-231 cells; assay: Cytotoxicity by MTT assay, MDA-MB-231; assay type: cell-based; conditions: MDA-MB-231 (receptor positive), MTX 5 µg/mL or nanocarrier system at equivalent drug concentration (8.6 µg/mL), 48 h, triplicate
Procedure: (§1) The cytotoxic efficacy of MTX–G–P4LDN–E2 was analyzed by an MTT assay. The cells were seeded in a 96-well plate at a density of 5000 cells per well. […] After 48 h of incubation, the cells were washed twice with 1X PBS, followed by the addition of MTT reagent (100 μL; 5 mg/mL in PBS) and 100 μL serum-free media to all wells and incubated for 3 h. Then DMSO (100 µL) was added to solubilize the formazan crystals, formed in viable cells. After 20 min, the optical density (OD) was measured at 570 nm using a microplate reader (BioRad). The percentage cell viability was calculated as 100 percentage cytotoxicity, where: % cytotoxicity=O.D of control−O.D of test /O.D of control[…]

[2] = test system: SiHa cells; assay: Cell cycle analysis by flow cytometry (propidium iodide), SiHa; assay type: cell-based; conditions: 24 h incubation, FACS
Procedure: (§2) The cell cycle analysis was conducted by flow cytometry using the manufacturer’s protocol. Briefly, MDA-MB-231 and SiHa cells (1 × 10^5cells/well) were incubated with MTX and MTX–G–P4LDN–E2 for 24 h, trypsinized, and centrifuged to collect the pellet. The cells were then fixed with pre-cooled 70% ethanol at 4 °C for 45 min. After fixation, the pellet was collected carefully after centrifugation at 850× g for 5 min. It was then washed twice with 1X PBS, and 50 μL RNase (100 μg/mL) was added and incubated for 45 min at 37 °C. Then, the cells were washed with 1X PBS and stained with propidium iodide (100 μL, 50 μg/mL) for 10 min. The cellular DNA was analyzed by flow cytometer, and the percentage of cells in each phase of the cell cycle was analyzed by BD FACS Diva software.

[3] = test system: MDA-MB-231 cells; assay: Cell cycle analysis by flow cytometry (propidium iodide), MDA-MB-231; assay type: cell-based; conditions: MDA-MB-231, 24 h incubation, FACS
Procedure: as §2

[4] = test system: SiHa cells; assay: Cytotoxicity by MTT assay, SiHa; assay type: cell-based; conditions: SiHa (receptor negative), MTX 5 µg/mL or nanocarrier system at equivalent drug concentration (8.6 µg/mL), 48 h, triplicate
Procedure: as §1

[5] = test system: MDA-MB-231 tumor; assay: Anti-tumor efficacy in MDA-MB-231 tumor-bearing NOD-SCID mice; assay type: in vivo; conditions: female NOD-SCID mice, tail vein, 5 times for 20 days
Procedure: For analyzing the efficacy of the nanocarrier systems, fifteen male and fifteen female NOD-SCID mice were assigned to three groups each (n = 3 in first group and n = 6 in second and third groups). Tumor was implanted by injecting cells subcutaneously in the dorsolateral flank with a concentration of 5 × 10^6 MDA-MB-231 cells to female NOD-SCID mice. When the volume of tumor reached 500–1000 mm^3, the first group of animals, serving as the control group, was given PBS (5 mL/kg body weight). The second group was given free-drug MTX (20 mg/kg) through the tail vein. The third group received MTX–G–P4LDN–E2 (35 mg/kg, equivalent to the MTX concentration) through the tail vein, and the treatment was given to the mice 5 times for 20 days.
The tumor volume and body weight of the animals were measured before each injection. The body weight and tumor volume on the final day (24th day) was also calculated. A vernier caliper was used to measure the tumor, and the tumor volume was calculated using the formula: Tumor volume (mm^3)=(length in mm)×(width in mm)^2/2
The treatment was started when the tumor volume reached 500–1000 mm^3. There were 3 groups (n = 3 for control group and n = 6 for treatment groups). First group received PBS (5 mL/kg body weight) was treated as the control. […] On every injection day, the tumor volume as well as the body weight of the animals were measured.

[6] = test system: SiHa (EGFR negative) cells; assay: Receptor binding ability by flow cytometry, SiHa; assay type: cell-based; conditions: fluorescein MTX 5 µg/mL or fluorescein MTX-conjugated system 8.6 µg/mL (equivalent MTX), 24 h
Procedure: (§3) Then fluorescein MTX (5 µg/mL) and fluorescein MTX-conjugated systems (8.6 µg/mL; having equivalent MTX concentrations) were added to each well and incubated for 24 h. After incubation, the cells were trypsinized and analyzed by flow cytometry. The cells without MTX or DDS treatment were taken as the control.

[7] = test system: MDA-MB-231 (EGFR overexpressed) cells; assay: Receptor binding ability by flow cytometry, MDA-MB-231; assay type: cell-based; conditions: fluorescein MTX 5 µg/mL or fluorescein MTX-conjugated system 8.6 µg/mL (equivalent MTX), 24 h
Procedure: as §3

[8] = test system: MDA-MB-231 (EGFR overexpressed) cells; assay: Functional evaluation by confocal microscopy, MDA-MB-231; assay type: cell-based; conditions: fluorescein MTX 5 µg/mL or conjugated system 8.6 µg/mL, 24 h
Procedure: (§4) MDA-MB-231 (EGFR overexpressed) and SiHa (EGFR negative) cells were grown on coverslips inside the 6-well plates, and the receptor binding ability of MTX–G–P4LDN–E2 was analyzed by confocal microscopy. Fluorescein methotrexate (5 µg/mL) and fluorescein MTX conjugated system (8.6 µg/mL; having equivalent methotrexate concentrations) were added to the wells and incubated for 24 h. The cells without MTX or DDS treatment were taken as the control. Then, Hoechst 33342 (10 µg/mL) was added and incubated for 15 min. The cells were observed under a confocal laser scanning microscope at suitable magnifications.

[9] = test system: SiHa (EGFR negative) cells; assay: Functional evaluation by confocal microscopy, SiHa; assay type: cell-based; conditions: fluorescein MTX 5 µg/mL or conjugated system 8.6 µg/mL, 24 h
Procedure: as §4

[10] = test system: MDA-MB-231 cells; assay: In vitro binding of rhodamine B-conjugated peptides, MDA-MB-231; assay type: cell-based; conditions: MDA-MB-231, 2 h, 37 °C, flow cytometry and confocal imaging
Procedure: Figure S4. Binding activities of rho B-conjugated peptides after incubating with MDA-MB-231 cells for 2 hours at 37°C. a) Untreated control MDA-MB-231 cell. MDA-MB-231 cells binding with b) E1, c) E2, d) E3, e) E4, and f) E5. g) Binding affinity percentages of rho B- conjugated peptides. […]
Figure S6. Internalization of peptides in MDA -MB-231 cells. MDA-MB-231 (EGFR overexpressed) cells were incubated with E1 to E5 peptides (50 µM) for 2 hours at 37°C. Rho-B alone was given as the control. The cells were nuclear stained […]
(1 picture or pasted object on this page, not shown here)

Compound | Cytotoxicity [1] | Percentage of cells in G0 [2] | Percentage of cells in G1 [2] | Percentage of cells in G2-M [2] | Percentage of cells in S [2] | Percentage of cells in G0 [3] | Percentage of cells in G1 [3] | Percentage of cells in G2-M [3] | Percentage of cells in S [3] | Cytotoxicity [4] | Average tumor volume at the end of the treatment ([5]; MTX 20 mg/kg or MTX–G–P4LDN–E2 35 mg/kg (equivalent MTX), day 25, n = 6, mean ± SD, control 2890 ± 85.440) | Reduction in tumor volume compared to control ([5]; MTX 20 mg/kg or MTX–G–P4LDN–E2 35 mg/kg, day 25, n = 6) | Binding ability (% of cells, P2) [6] | Binding ability (% of cells, P2) [7] | Binding (fluorescence) in confocal images [8] | Binding (fluorescence) in confocal images [9] | Binding efficacy of the short peptides in vitro [10]
CN(Cc1cnc2nc(N)nc(N)c2n1)c1ccc(C(=O)N[C@@H](CCC(=O)O)C(=O)O)cc1 [MTX, methotrexate] | 63% | 14.4% | 64.3% | 10.7% | 8.8% | 9% | 52.1% | 14.9% | 19.1% | 57% | 661.8 ± 209.067 mm^3 | 77.2% | 82.4% | 99.6% and > 99% | bound with the MDA-MB-231 cells similarly | only the free drug showed fluorescence | –
ARSHVGYTGAR [E2, EGFR-specific short peptide …] | – | – | – | – | – | – | – | – | – | – | – | – | – | – | – | – | highest binding efficacy
